Experimental findings from EP4389751A1, “HETEROCYCLIC COMPOUNDS AND USES THEREOF” (Kumquat Biosciences Inc., priority 2021, dated 2024) are described below.

One experiment has as its system GP2D cells. Nature of the experiment: Cell proliferation assay (CellTiter-Glo), K-Ras G12D cells. Type of experiment: cell-based. Particulars: GP2D cells (K-Ras G12D); read-out: Inhibition of GP2D Cells (IC50). In outline:
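GP2D (K-Ras G12D) cells seeded in DMEM with 2 mM glutamine and 10% FBS, then dosed next day with a dilution series (e.g., 9-point 3-fold). Viability read by CellTiter-Glo luminescence after about 5 days. IC50 from four-parameter fit.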
On the technique in general: Cellular ATP, detected with luciferase, serves as a proxy for viable cell number.

The test system of a further experiment is A549 cells. Nature of the experiment: Cell proliferation assay (CellTiter-Glo), K-Ras G12S cells. Type of experiment: cell-based. Particulars: for IC50: Homo sapiens, A549, A549 cells (K-Ras G12S), read-out: Inhibition of A549 Cells (IC50); for ratio of IC50 against a G12D cell line to IC50 against a G12S cell line: K-Ras G12D cell line such as GP2D relative to K-Ras G12S cell line such as A549, greater than 1, 2, 3, 4, 5, 10, 15 or even greater, 8640 min. As to the method:
A549 (ATCC CRL-185) and LS123 (ATCC CRL-255) cell lines comprise a G12S mutation and can be used to assess Ras cellular signaling in vitro, e.g., in response to the compounds herein. A549 culture medium is prepared with RPMI-1640 and 10% heat-inactivated FBS. LS123 culture medium is prepared with RPMI-1640 and 10% heat-inactivated FBS. A CellTiter-Glo (CTG) luminescent based assay (Promega) is used to assess growth of the cells, as a measurement of the ability of the compounds herein to inhibit Ras signaling in the cells. The cells (e.g., 800 per well) are seeded in their respective culture medium in standard tissue culture-treated 384-well format plates (Falcon #08-772-116) or ultra-low attachment surface 384-well format plates (S-Bio # MS-9384WZ). The day after plating, cells are treated with a dilution series (e.g., a 10 point 3-fold dilution series) of the compounds herein (e.g., approximately 40 µl final volume per well). Cell viability can be monitored (e.g., approximately 6 days later) according to the manufacturer's recommended instructions, where the CellTiter-Glo reagent is added (e.g., approximately 10 µl), vigorously mixed, covered, and placed on a plate shaker (e.g., approximately for 20 min) to ensure sufficient cell lysis prior to assessment of luminescent signal. The IC50 values are determined using the four parameter fit. The resulting IC50 value is a measurement of the ability of the compounds herein to reduce cell growth of Ras-driven cells (e.g., tumor cell lines) in vitro and/or in vivo.

For the next experiment, the target named is T1, K-Ras G12S (Homo sapiens, UniProt P01116, G12S).
T1 construct: made in house; host or cells: E. coli (e.g., BL21 (DE3))
Put plainly: HTRF assay of the K-Ras / SOS1 interaction. Type of experiment: biochemical. To be noted: IC50 (against K-Ras G12D) to IC50 (against K-Ras G12S). The method, boiled down:
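GST-K-Ras G12S with anti-GST-Eu donor and His-hSOS1 with anti-6His-XL665 acceptor in ~5 mM HEPES pH 7.4, ~150 mM NaCl, 1 mM DTT, 0.05% BSA, 0.0025% Igepal. Read after ~10 min or longer; IC50 from 665/620 nm ratio, duplicates at 10 µM down to 0.01 µM.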
On the technique in general: Time-resolved FRET reads energy transfer from a long-lived donor to a nearby acceptor.

Each structure is given as a SMILES string. Like-named read-outs stand apart in the source and are kept apart here.

By IC50 is commonly meant the point on the concentration scale where inhibition reaches its midpoint.

T1 sequence (P01116 1-188 isoform P01116-2 G12S): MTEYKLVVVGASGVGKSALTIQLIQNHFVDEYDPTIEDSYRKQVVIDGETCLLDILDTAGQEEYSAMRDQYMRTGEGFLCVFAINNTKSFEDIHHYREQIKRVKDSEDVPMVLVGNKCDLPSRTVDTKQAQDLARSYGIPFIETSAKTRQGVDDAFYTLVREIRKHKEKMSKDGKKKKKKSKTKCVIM

With `N#Cc1c(N)sc2c(F)ccc(-c3c(Cl)cc4c(N5CC6CCC(C5)N6C(=O)n5ccnc5)nc(OC[C@@]56CCCN5C[C@H](F)C6)nc4c3F)c12` [Compound A105, 4-(4-(8-(1H-imidazole-1-carbonyl)-3,8-diazabicyclo[3.2.1]octan-3-yl)-6-chloro-8-fluoro-2-(((2R,7aS)-2-fluorotetrahydro-1H-pyrrolizin-7a(5H)-yl)methoxy)quinazolin-7-yl)-2-amino-7-fluorobenzo[b]thiophene-3-carbonitrile], the values for the concentration for half-maximal inhibition (IC50) in the experiment on GP2D cells and in the experiment on A549 cells (bin ≤ 500 nM) were no more than 1000 nM and no more than 500 nM, respectively.
Take `N#Cc1c(N)sc2c(F)ccc(-c3c(Cl)cc4c(N5CCC6C5CCN6C(=O)n5cncn5)nc(OC[C@@]56CCCN5C[C@H](F)C6)nc4c3F)c12` (stereo partly drawn) [Compound A108, 4-(4-(4-(1H-1,2,4-triazole-1-carbonyl)hexahydropyrrolo[3,2-b]pyrrol-1(2H)-yl)-6-chloro-8-fluoro-2-(((2R,7aS)-2-fluorotetrahydro-1H-pyrrolizin-7a(5H)-yl)methoxy)quinazolin-7-yl)-2-amino-7-fluorobenzo[b]thiophene-3-carbonitrile]: the “Ratio of IC50 KRAS G12D vs. IC50 KRAS G12S” value at K-Ras G12S is “A (A: indicates that the ratio of IC50 against KrasG12D vs. IC50 against KrasG12S is 1-fold or greater)”. Also, the IC50 in the experiment with GP2D cells was no more than 1000 nM; in the experiment on A549 cells (bin ≤ 500 nM) it was no more than 500 nM.
For `Cc1nc(C)n(C(=O)N2CC3(CCCCN(c4nc(OC[C@@]56CCCN5C[C@H](F)C6)nc5c(F)c(-c6ccc(F)c7sc(N)c(C#N)c67)c(Cl)cc45)C3)C2)n1` [Compound A116, 2-amino-4-(6-chloro-4-(2-(3,5-dimethyl-1H-1,2,4-triazole-1-carbonyl)-2,6-diazaspiro[3.6]decan-6-yl)-8-fluoro-2-(((2R,7aS)-2-fluorotetrahydro-1H-pyrrolizin-7a(5H)-yl)methoxy)quinazolin-7-yl)-7-fluorobenzo[b]thiophene-3-carbonitrile], the 50% inhibitory concentration (IC50) in the experiment with GP2D cells is no more than 1000 nM; in the experiment with A549 cells (bin ≤ 500 nM), no more than 500 nM.
On to `C#Cc1c(F)ccc2cc(O)cc(-c3ncc4c(N5CC6CCC(C5)N6C(=O)n5cc(C#N)cn5)nc(OC[C@@]56CCCN5C[C@H](F)C6)nc4c3F)c12` [Compound A143, 1-(3-(7-(8-ethynyl-7-fluoro-3-hydroxynaphthalen-1-yl)-8-fluoro-2-(((2R,7aS)-2-fluorotetrahydro-1H-pyrrolizin-7a(5H)-yl)methoxy)pyrido[4,3-d]pyrimidin-4-yl)-3,8-diazabicyclo[3.2. 1]octane-8-carbonyl)-1H-pyrazole-4-carbonitrile], for which the 50% inhibitory concentration (IC50) in the experiment with GP2D cells was no more than 1000 nM; with A549 cells (bin ≤ 500 nM), no more than 500 nM.
As to `Nc1nc2c(-c3c(Cl)cc4c(N5CC6CN(C(=O)n7cncn7)C6C5)nc(OC[C@@]56CCCN5C[C@H](F)C6)nc4c3F)ccc(F)c2s1` (stereo partly drawn) [Compound A177, (3-(7-(2-amino-7-fluorobenzo[d]thiazol-4-yl)-6-chloro-8-fluoro-2-(((2R,7aS)-2-fluorotetrahydro-1H-pyrrolizin-7a(5H)-yl)methoxy)quinazolin-4-yl)-3,6-diazabicyclo[3.2.0]heptan-6-yl)(1H-1,2,4-triazol-1-yl)methanone], the IC50 in the experiment with GP2D cells was no more than 1000 nM; in the experiment with A549 cells (bin 500 nM to 5 µM) it was 500 to 5000 nM.
Turning to `Cc1ncn(C(=O)N2CC3CN(c4nc(OC[C@@]56CCCN5C[C@H](F)C6)nc5c(F)c(-c6ccc(F)c7sc(N)c(C#N)c67)c(Cl)cc45)CC32)n1` (stereo partly drawn) [Compound A196, 2-amino-4-(6-chloro-8-fluoro-2-(((2R,7aS)-2-fluorotetrahydro-1H-pyrrolizin-7 a(5H)-yl)methoxy)-4-(6-(3-methyl-1H-1,2,4-triazole-1-carbonyl)-3,6-diazabicyclo[3.2.0]heptan-3-yl)quinazolin-7-yl)-7-fluorobenzo[b]thiophene-3-carbonitrile], the IC50 with GP2D cells is no more than 1000 nM; with A549 cells (bin ≤ 500 nM), no more than 500 nM.
In the same order, the values of `N#Cc1c(N)sc2c(F)ccc(-c3c(Cl)cc4c(N5CC6CCC(C5)N6C(=O)Nc5ncccn5)nc(OC[C@@]56CCCN5C[C@H](F)C6)nc4c3F)c12` [Compound A215, 3-(7-(2-amino-3-cyano-7-fluorobenzo[b]thiophen-4-yl)-6-chloro-8-fluoro-2-(((2R,7aS)-2-fluorotetrahydro-1H-pyrrolizin-7a(5H)-yl)methoxy)quinazolin-4-yl)-N-(pyrimidin-2-yl)-3,8-diazabicyclo[3.2. 1]octane-8-carboxamide] are no more than 1000 nM and no more than 500 nM.
Regarding `N#Cc1c(N)sc2c(F)ccc(-c3c(Cl)cc4c(N5CCC6CN(C(=O)Nc7ncccn7)CCC65)nc(OC[C@@]56CCCN5C[C@H](F)C6)nc4c3F)c12` (stereo partly drawn) [Compound A251, 1-(7-(2-amino-3-cyano-7-fluorobenzo[b]thiophen-4-yl)-6-chloro-8-fluoro-2-(((2R,7aS)-2-fluorotetrahydro-1H-pyrrolizin-7a(5H)-yl)methoxy)quinazolin-4-yl)-N-(pyrimidin-2-yl)octahydro-5H-pyrrolo[3,2-c]pyridine-5-carboxamide], the IC50 was 1000 to 10000 nM with GP2D cells and no more than 500 nM in the experiment with A549 cells (bin ≤ 500 nM). The “ratio of IC50 against a G12D cell line to IC50 against a G12S cell line” value in the experiment on A549 cells is recorded as “greater than 1”.
In the case of `N#Cc1cnn(C(=O)N2C3CCC2CN(c2nc(OC[C@@]45CCCN4C[C@H](F)C5)nc4c(F)c(-c5ccc(F)c6sc(N)nc56)c(Cl)cc24)C3)c1` [Compound A253, 1-(3-(7-(2-amino-7-fluorobenzo[d]thiazol-4-yl)-6-chloro-8-fluoro-2-(((2R,7aS)-2-fluorotetrahydro-1H-pyrrolizin-7a(5H)-yl)methoxy)quinazolin-4-yl)-3,8-diazabicyclo[3.2. 1]octane-8-carbonyl)-1H-pyrazole-4-carbonitrile], the values for the IC50 in the experiment on GP2D cells and in the experiment with A549 cells (bin 500 nM to 5 µM) were no more than 1000 nM and 500 to 5000 nM, respectively.
With `Cc1nc(C(C)C)nn1C(=O)N1CC2(CCCCN(c3nc(OC[C@@]45CCCN4C[C@H](F)C5)nc4c(F)c(-c5ccc(F)c6sc(N)c(C#N)c56)c(Cl)cc34)C2)C1` [Compound A305, 2-amino-4-(6-chloro-8-fluoro-2-(((2R,7aS)-2-fluorotetrahydro-1H-pyrrolizin-7 a(5H)-yl)methoxy)-4-(2-(3-isopropyl-5-methyl-1H-1,2,4-triazole-1-carbonyl)-2,6-diazaspiro[3.6]decan-6-yl)quinazolin-7-yl)-7-fluorobenzo[b]thiophene-3-carbonitrile], the values for the concentration for half-maximal inhibition (IC50) in the experiment on GP2D cells and in the experiment on A549 cells (bin ≤ 500 nM) were 1000 to 10000 nM and no more than 500 nM, respectively. Also, in the experiment with A549 cells, the “ratio of IC50 against a G12D cell line to IC50 against a G12S cell line” value is “greater than 1”.
With `N#Cc1c(N)sc2c(F)ccc(-c3c(Cl)cc4c(N5CC6CN(C(=O)n7cncn7)C6C5)nc(OC[C@@]56CCCN5C[C@H](F)C6)nc4c3F)c12` (stereo partly drawn) [Compound A306, 4-(4-(6-(1H-1,2,4-triazole-1-carbonyl)-3,6-diazabicyclo[3.2.0]heptan-3-yl)-6-chloro-8-fluoro-2-(((2R,7aS)-2-fluorotetrahydro-1H-pyrrolizin-7a(5H)-yl)methoxy)quinazolin-7-yl)-2-amino-7-fluorobenzo[b]thiophene-3-carbonitrile], the figures for the half-inhibitory concentration (IC50) in the experiment on GP2D cells and in the experiment with A549 cells (bin 500 nM to 5 µM) were no more than 1000 nM and 500 to 5000 nM, respectively.
